Laboratory results published in the CheMixHub viscosity set.
Values joined by “and” are separate entries in the source; they are usually repeats but may differ in a detail not shown here. Equal values may be shown once. ± gives the uncertainty stated by the source.

C=CC(=O)OCC
viscosity
Conditions	293.15 K	298.15 K	303.15 K	308.15 K	313.15 K	318.15 K
100 kPa	0.5685 ± 0.011 mPa·s	0.533 ± 0.011 mPa·s	0.5 ± 0.011 mPa·s	0.4643 ± 0.01 mPa·s	0.423 ± 0.01 mPa·s	0.3813 ± 0.01 mPa·s
101 kPa	0.5685 ± 0.023 mPa·s and 0.573 ± 0.07 mPa·s	–	0.5 ± 0.02 mPa·s and 0.504 ± 0.07 mPa·s and 0.502 ± 0.008 mPa·s	–	0.423 ± 0.017 mPa·s and 0.443 ± 0.07 mPa·s and 0.42 ± 0.007 mPa·s	0.3813 ± 0.016 mPa·s and 0.421 ± 0.07 mPa·s

CC1=CCC(=C(C)C)CC1
101 kPa
Conditions	viscosity [mPa·s]
303.15 K	1.007 ± 0.055
308.15 K	0.945 ± 0.051
313.15 K	0.884 ± 0.048

CCCC(C)C
101.33 kPa
Conditions	viscosity [mPa·s]
298 K	0.2753 ± 0.0048
298.15 K	0.2767 ± 0.003

CCCCCC(=O)O.CCCCCC(=O)[O-].CC[NH+](CC)CCO
101 kPa
Conditions	viscosity [mPa·s]
293.15 K	76.9 ± 1.7
298.15 K	60.01 ± 1.3
303.15 K	47.52 ± 1
308.15 K	38.14 ± 0.82
313.15 K	31 ± 0.67
318.15 K	25.48 ± 0.55
323.15 K	21.16 ± 0.45

CCCCCCCCCCCCCCCCCCCCCC
Conditions	viscosity [mPa·s]
323.1 K, 101.3 kPa	4.128 ± 0.046

CCCCn1cc[n+](C)c1.F[P-](F)(F)(F)(F)F
viscosity
Conditions	293.15 K	293.2 K	298.15 K	303.15 K	308.15 K	308.19 K	313.15 K	318.15 K	323.15 K
100 kPa	336.9 ± 22 mPa·s	342.7 ± 67 mPa·s	256.7 ± 14 mPa·s	197.6 ± 9.3 mPa·s	148.3 ± 5.8 mPa·s	144 ± 15 mPa·s	112 ± 3.6 mPa·s	87.66 ± 2.4 mPa·s	70.97 ± 1.7 mPa·s
101 kPa	378 ± 12 mPa·s and 249.5 ± 100 mPa·s and 265.2 ± 10 mPa·s	–	–	187.6 ± 4.5 mPa·s and 136 ± 54 mPa·s and 165.7 ± 5.5 mPa·s	101.5 ± 41 mPa·s and 133.9 ± 4.2 mPa·s	–	129.7 ± 2.8 mPa·s and 79.01 ± 32 mPa·s and 110.8 ± 3.3 mPa·s	93.5 ± 2 mPa·s and 62.4 ± 25 mPa·s and 95.75 ± 2.8 mPa·s	88.51 ± 1.8 mPa·s and 47.7 ± 19 mPa·s

CCO
Conditions	viscosity
293.61 K, 100 kPa	1.18 ± 0.06 mPa·s
293.91 K, 100 kPa	1.17 ± 0.06 mPa·s
294.21 K, 100 kPa	1.17 ± 0.06 mPa·s
294.52 K, 100 kPa	1.16 ± 0.06 mPa·s
294.82 K, 100 kPa	1.16 ± 0.06 mPa·s
295.12 K, 100 kPa	1.15 ± 0.06 mPa·s
295.42 K, 100 kPa	1.15 ± 0.06 mPa·s
295.73 K, 100 kPa	1.14 ± 0.06 mPa·s
296.03 K, 100 kPa	1.14 ± 0.06 mPa·s
296.33 K, 100 kPa	1.13 ± 0.06 mPa·s
296.64 K, 100 kPa	1.13 ± 0.06 mPa·s
296.94 K, 100 kPa	1.12 ± 0.06 mPa·s
297.24 K, 100 kPa	1.12 ± 0.06 mPa·s
298.15 K, 101 kPa	1.03 ± 0.03 mPa·s
299.06 K, 100 kPa	1.08 ± 0.06 mPa·s
299.36 K, 100 kPa	1.08 ± 0.06 mPa·s
299.67 K, 100 kPa	1.07 ± 0.05 mPa·s
299.97 K, 100 kPa	1.07 ± 0.05 mPa·s
300.27 K, 100 kPa	1.06 ± 0.05 mPa·s
300.58 K, 100 kPa	1.06 ± 0.05 mPa·s
300.88 K, 100 kPa	1.05 ± 0.05 mPa·s
301.18 K, 100 kPa	1.05 ± 0.05 mPa·s
301.48 K, 100 kPa	1.04 ± 0.05 mPa·s
301.79 K, 100 kPa	1.04 ± 0.05 mPa·s
302.09 K, 100 kPa	1.03 ± 0.05 mPa·s
302.39 K, 100 kPa	1.03 ± 0.05 mPa·s
303.15 K, 100 kPa	0.989 ± 0.012 mPa·s
303.15 K, 101.33 kPa	0.988 ± 0.2 mPa·s
303.61 K, 100 kPa	1.01 ± 0.05 mPa·s
303.91 K, 100 kPa	1 ± 0.05 mPa·s
304.21 K, 100 kPa	1 ± 0.05 mPa·s
304.52 K, 100 kPa	0.99 ± 0.05 mPa·s
304.82 K, 100 kPa	0.99 ± 0.05 mPa·s
305.12 K, 100 kPa	0.98 ± 0.05 mPa·s
305.42 K, 100 kPa	0.98 ± 0.05 mPa·s
305.73 K, 100 kPa	0.97 ± 0.05 mPa·s
306.03 K, 100 kPa	0.97 ± 0.05 mPa·s
306.33 K, 100 kPa	0.96 ± 0.05 mPa·s
306.64 K, 100 kPa	0.96 ± 0.05 mPa·s
306.94 K, 100 kPa	0.95 ± 0.05 mPa·s
307.24 K, 100 kPa	0.95 ± 0.05 mPa·s
307.55 K, 100 kPa	0.94 ± 0.05 mPa·s
307.85 K, 100 kPa	0.94 ± 0.05 mPa·s
308.15 K, 100 kPa	0.93 ± 0.05 mPa·s
308.45 K, 100 kPa	0.93 ± 0.05 mPa·s
308.76 K, 100 kPa	0.92 ± 0.05 mPa·s
309.06 K, 100 kPa	0.92 ± 0.05 mPa·s
309.36 K, 100 kPa	0.91 ± 0.05 mPa·s
309.67 K, 100 kPa	0.91 ± 0.05 mPa·s
309.97 K, 100 kPa	0.9 ± 0.05 mPa·s
310.27 K, 100 kPa	0.9 ± 0.05 mPa·s
310.58 K, 100 kPa	0.89 ± 0.05 mPa·s
310.88 K, 100 kPa	0.89 ± 0.05 mPa·s
311.18 K, 100 kPa	0.88 ± 0.05 mPa·s
311.48 K, 100 kPa	0.88 ± 0.05 mPa·s
313.15 K, 100 kPa	0.8179 ± 0.011 mPa·s and 0.82 ± 0.05 mPa·s
313.15 K, 101.32 kPa	0.835 ± 0.084 mPa·s
318.15 K, 100 kPa	0.75 ± 0.05 mPa·s
323 K, 101.33 kPa	0.673 ± 0.0063 mPa·s and 0.673 ± 0.046 mPa·s
323.15 K, 101.32 kPa	0.702 ± 0.07 mPa·s
